This note sets out measurements from ChEMBL document CHEMBL1201862, “PubChem BioAssay data set” (2004).

Where a name gives a salt, the structure may show the parent alone. Activity calls are given as the source filed them.

The nature of test [1]: CellTiter-Glo luminescence survival assay, SW480 colon tumor line, concentration-response curve, half-maximal inhibitory concentration (AID 1117338). Format: functional. Background: In ATP-based viability assays light output follows the ATP content of the culture.
A short description of test [2]: RKO cell viability reduction, dose response, CellTiter-Glo luminescence (AID 1117322). Format: functional.
Test [3] can be described thus: cytotoxicity toward HCT116 cells – cell-based, CellTiter-Glo luminescence, IC50, dose response (AID 1117332). Type of test: functional. As to conditions: HCT-116.
Test [4] in a line: SNU-C1 cell viability reduction, dose response, CellTiter-Glo luminescence (AID 1117323). Type of test: functional, cell-based.
The nature of test [5]: cytotoxicity toward Colo320 cells – cell-based, CellTiter-Glo luminescence, IC50, dose response (AID 1117334). Type of test: functional. The following applies: COLO 320.
A short description of test [6]: cytotoxicity toward HT-29 cells – cell-based, CellTiter-Glo luminescence, IC50, dose response (AID 1117330). Format: functional.
Test [7] is described as follows: Reduced DLD-1 viability, concentration-response, CellTiter-Glo luminescence (AID 1117352). Format: functional.
Test [8] in a line: HCT116 cell viability decrease, GSK3B pretreatment – CellTiter-Glo, IC50, dose response (AID 1117339). Format: functional. The following applies: HCT-116.
Test [9] addresses T1, Lysosomal acid glucosylceramidase (Homo sapiens, UniProt P04062).
T1 sequence (P04062 whole entry): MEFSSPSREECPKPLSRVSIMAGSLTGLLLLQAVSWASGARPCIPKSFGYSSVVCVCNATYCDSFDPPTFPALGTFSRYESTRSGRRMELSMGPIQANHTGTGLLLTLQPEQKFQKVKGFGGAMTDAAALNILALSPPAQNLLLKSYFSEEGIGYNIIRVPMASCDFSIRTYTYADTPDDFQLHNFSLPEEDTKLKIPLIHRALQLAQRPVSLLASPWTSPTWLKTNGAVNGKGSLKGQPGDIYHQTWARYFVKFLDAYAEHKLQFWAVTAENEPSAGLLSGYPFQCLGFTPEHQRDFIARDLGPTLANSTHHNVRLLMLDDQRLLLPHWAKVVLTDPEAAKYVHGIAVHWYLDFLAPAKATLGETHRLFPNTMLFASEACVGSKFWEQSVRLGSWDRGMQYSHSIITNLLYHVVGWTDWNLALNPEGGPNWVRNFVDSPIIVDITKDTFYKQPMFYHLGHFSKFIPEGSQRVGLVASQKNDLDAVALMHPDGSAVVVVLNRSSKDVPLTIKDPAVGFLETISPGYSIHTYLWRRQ
Kind of test: Dose response cell-based high throughput screening assay to identify enhancers of beta-glucosidase activity. [Related pubchem assays: 784 ]. Type of test: functional.

In test [10] the target is Cytochrome P450 2C19 (Homo sapiens, UniProt P33261). Kind of test: Cytochrome panel assay with activity outcomes. Panel member name: p450-cyp2c19 Compounds with AC50 equal or less than 10 uM are considered active. Type of test: functional. The following applies: read-out: AC50.
Test [11] has as its target T2, Cytochrome P450 1A2 (Homo sapiens, UniProt P05177).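 Also: PubChem cytochrome P450 panel assay, CYP1A2 panel member.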
T2 sequence (P05177 whole entry): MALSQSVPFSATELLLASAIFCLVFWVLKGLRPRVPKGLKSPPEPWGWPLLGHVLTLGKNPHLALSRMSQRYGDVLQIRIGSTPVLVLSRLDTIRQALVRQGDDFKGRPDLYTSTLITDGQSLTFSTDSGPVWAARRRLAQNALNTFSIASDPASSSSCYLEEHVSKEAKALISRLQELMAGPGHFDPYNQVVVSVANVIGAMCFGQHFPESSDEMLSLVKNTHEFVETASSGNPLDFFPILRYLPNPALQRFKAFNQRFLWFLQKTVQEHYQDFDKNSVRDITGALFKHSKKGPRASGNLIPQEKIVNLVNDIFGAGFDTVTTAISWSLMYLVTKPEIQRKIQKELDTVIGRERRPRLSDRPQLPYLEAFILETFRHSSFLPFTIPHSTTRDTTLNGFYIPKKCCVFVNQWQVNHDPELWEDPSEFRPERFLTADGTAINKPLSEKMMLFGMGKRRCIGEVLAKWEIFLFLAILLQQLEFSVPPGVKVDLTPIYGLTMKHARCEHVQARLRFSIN

For test [12], the target named is Cytochrome P450 3A4 (Homo sapiens, UniProt P08684).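 Also: CYP3A4 tested as one member of a cytochrome P450 panel screen.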
Test [13] is described as follows: A cytotoxicity screen of small molecule inhibitors of the PhoP region in Salmonella typhi identified in the primary screen. [Related pubchem assays: 1850, 1864, 1985 ]. Type of test: functional.
Test [14] is described as follows: A High Throughput Confirmatory Assay used to Identify Novel Compounds that Inhibit Mycobacterium Tuberculosis in the absence of Glycerol. Format: functional.
Test [15] is described as follows: microbe, parasite or virus in culture. Format: functional. The following applies: Mycobacterium tuberculosis.
The nature of test [16]: THP-1 cell cytotoxicity, dose response, cytotoxicity control for non-replicating M. tuberculosis project (AID 489025). Type of test: functional.
Test [17] in a line: cells. Format: functional.
Test [18] is described as follows: A549 cell cytotoxicity, dose response, cytotoxicity control, plate reader, cherry-pick, antagonist series (AID 743412). Type of test: functional, cell-based.
Test [19] is described as follows: toxicity toward HepG2 liver cells – cell-based, plate reader, cherry-pick, antagonist series, cytotoxicity control, dose response (AID 743416). Type of test: functional.
Test [20] can be described thus: blockers of bursicon-stimulated LGR2 cAMP reporter – cell-based, HEK293, CRE-luciferase reporter, cherry pick, set 2, dose response (AID 743343).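 Also: transfected cells were stimulated with diluted bursicon conditioned medium after compound addition.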 Type of test: functional.
A short description of test [21]: blockade of melanocortin 4 receptor signaling – cell-based, plate reader, cherry pick, counter-screen for LGR2 antagonist project, dose response (AID 743444).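 Also: transfected HEK 293 cells stimulated with alpha-MSH peptide; potency of inhibitors of the alpha-MSH evoked signal.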 Type of test: functional. For orientation: The purpose of a counterscreen is to sort out artefacts and off-target activity.
A short description of test [22]: viability loss in HEK293 cells – cell-based, plate reader, cherry-picked samples, cytotoxicity control, dose response (AID 743446). Type of test: functional.
In test [23] the target is T3, Replicative DNA helicase DnaB (Mycobacterium tuberculosis, UniProt P9WMR3).
T3 sequence (P9WMR3 whole entry): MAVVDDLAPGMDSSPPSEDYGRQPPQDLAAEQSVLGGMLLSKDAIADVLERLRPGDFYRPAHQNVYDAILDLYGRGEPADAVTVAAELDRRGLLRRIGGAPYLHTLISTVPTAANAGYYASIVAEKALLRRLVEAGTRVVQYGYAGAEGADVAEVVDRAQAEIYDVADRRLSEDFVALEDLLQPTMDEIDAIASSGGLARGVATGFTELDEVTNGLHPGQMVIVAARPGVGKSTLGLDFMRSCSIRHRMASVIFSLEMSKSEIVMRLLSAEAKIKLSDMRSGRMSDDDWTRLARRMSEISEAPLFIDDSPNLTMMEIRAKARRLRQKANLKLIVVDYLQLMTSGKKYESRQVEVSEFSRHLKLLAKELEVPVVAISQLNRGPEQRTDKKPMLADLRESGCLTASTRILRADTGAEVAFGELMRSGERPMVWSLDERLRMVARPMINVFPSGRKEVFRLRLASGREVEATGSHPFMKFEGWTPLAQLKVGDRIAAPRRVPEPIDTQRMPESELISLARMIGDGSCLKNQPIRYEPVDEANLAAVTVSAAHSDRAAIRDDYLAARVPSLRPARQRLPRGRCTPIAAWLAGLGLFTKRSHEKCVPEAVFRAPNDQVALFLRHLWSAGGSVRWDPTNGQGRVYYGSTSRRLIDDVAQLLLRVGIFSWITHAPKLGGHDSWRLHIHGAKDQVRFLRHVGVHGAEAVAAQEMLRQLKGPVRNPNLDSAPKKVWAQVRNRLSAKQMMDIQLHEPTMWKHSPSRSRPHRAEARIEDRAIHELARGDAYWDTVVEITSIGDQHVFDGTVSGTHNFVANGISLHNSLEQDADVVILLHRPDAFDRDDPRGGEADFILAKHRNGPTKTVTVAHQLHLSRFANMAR
Kind of test: DnaB intein splicing inhibitors, dose response, biochemical, cell-free fluorescence (AID 449749). Format: functional.

Test [24] addresses T4, Protein RecA (Mycobacterium tuberculosis, UniProt P9WHJ3).
T4 sequence (P9WHJ3 whole entry): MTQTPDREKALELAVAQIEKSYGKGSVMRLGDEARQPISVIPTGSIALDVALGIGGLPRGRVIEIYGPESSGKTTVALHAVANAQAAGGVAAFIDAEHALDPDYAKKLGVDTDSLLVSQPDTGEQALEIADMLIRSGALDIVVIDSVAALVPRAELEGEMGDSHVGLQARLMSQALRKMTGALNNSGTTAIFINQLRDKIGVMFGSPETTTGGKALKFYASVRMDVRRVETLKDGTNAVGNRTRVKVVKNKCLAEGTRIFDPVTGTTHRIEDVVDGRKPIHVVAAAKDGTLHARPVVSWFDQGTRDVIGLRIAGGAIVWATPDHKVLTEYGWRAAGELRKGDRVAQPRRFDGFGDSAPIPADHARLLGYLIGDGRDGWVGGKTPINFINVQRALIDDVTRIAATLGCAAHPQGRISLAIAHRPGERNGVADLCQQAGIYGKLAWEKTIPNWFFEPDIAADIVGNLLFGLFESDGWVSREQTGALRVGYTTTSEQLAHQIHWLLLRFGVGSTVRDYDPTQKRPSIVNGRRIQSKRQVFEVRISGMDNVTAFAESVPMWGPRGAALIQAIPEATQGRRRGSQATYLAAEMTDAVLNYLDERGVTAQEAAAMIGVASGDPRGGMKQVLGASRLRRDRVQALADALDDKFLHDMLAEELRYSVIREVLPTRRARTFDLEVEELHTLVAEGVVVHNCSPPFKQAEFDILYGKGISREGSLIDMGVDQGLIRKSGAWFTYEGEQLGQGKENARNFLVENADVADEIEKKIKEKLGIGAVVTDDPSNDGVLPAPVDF
Kind of test: Fluorescence Cell-Free Homogeneous Dose Retest to Identify Inhibitors of RecA-Intein Splicing Activity. [Related pubchem assays (depositor defined):AID2097, AID2223, AID489010, AID492950]. Type of test: functional.

Chain of Cytochrome P450 3A4 (P08684 whole entry): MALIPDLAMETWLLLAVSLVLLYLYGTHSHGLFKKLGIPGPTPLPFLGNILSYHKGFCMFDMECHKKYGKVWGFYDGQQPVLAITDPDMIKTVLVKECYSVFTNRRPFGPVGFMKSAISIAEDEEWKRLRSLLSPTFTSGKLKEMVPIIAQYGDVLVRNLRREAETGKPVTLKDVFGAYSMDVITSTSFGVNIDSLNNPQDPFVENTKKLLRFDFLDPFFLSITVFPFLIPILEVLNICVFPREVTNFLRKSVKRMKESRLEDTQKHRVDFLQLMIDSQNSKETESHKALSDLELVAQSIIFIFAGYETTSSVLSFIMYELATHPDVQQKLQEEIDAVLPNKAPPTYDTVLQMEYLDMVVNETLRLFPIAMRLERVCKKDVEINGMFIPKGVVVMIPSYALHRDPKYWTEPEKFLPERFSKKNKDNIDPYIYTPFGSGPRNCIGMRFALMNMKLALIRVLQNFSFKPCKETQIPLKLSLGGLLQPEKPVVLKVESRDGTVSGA
Chain of Cytochrome P450 2C19 (P33261 whole entry): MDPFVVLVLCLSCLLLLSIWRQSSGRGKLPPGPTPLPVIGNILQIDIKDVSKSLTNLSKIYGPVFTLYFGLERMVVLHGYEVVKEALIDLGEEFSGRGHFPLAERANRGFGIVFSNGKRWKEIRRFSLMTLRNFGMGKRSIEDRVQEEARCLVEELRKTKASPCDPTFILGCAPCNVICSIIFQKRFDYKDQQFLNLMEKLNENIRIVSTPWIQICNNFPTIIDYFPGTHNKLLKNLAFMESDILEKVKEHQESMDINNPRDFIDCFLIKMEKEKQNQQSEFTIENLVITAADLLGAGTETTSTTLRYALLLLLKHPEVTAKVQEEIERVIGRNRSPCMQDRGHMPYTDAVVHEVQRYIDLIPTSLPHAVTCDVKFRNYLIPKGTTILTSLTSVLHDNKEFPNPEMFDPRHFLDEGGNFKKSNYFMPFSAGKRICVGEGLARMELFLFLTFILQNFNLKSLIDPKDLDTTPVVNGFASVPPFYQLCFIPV

Broadly, the IC50 is the concentration that inhibits the measured activity by half. Take `CCC(C(=O)OCCOCCN(CC)CC)c1ccccc1` (stereo unspecified) [BUTAMIRATE CITRATE]: the IC50 in test [1], in test [2], in test [3], in test [4], in test [5] and in test [6] was > 20 µM (inactive) each time. For the same compound, the IC50 in [7] and in test [8] was > 20 µM (inactive) each time.

One may read the EC50 as the midpoint of the concentration-response curve. As usually defined, the AC50 is the concentration at which the activity in the assay is half-maximal. For `Cc1ccc(C)c(NC(=O)C2CC(O)CN2C(=O)OC(C)(C)C)c1` (stereo unspecified), in [9], the EC50 is > 50 µM (not active). Moreover, the figures for the concentration at half-maximal activity (AC50) in [10], in test [11] and in [12] were 28.2 µM (inconclusive), 31.6 µM (inconclusive) and 25.1 µM (inconclusive), respectively.

Regarding `Cc1ccc(NC(=O)C(=O)NNC(=O)c2cccs2)cc1`, the EC50 in test [13] is > 50 µM (active).

Turning to `Cc1ccnc(NC(=O)c2cc3ccccc3o2)c1`, the values for the IC50 in test [14] and in test [17] were > 50 µM (active) and 19.3 µM (active), respectively. The CC50 in test [15] and in test [16] was > 40 µM (active) throughout. Also, the AC50 in test [18] is 30 µM (active); in test [19], > 52 µM (inactive); in [20], 2.27 µM (active); in [21], 2.06 µM (active); in [22], 52 µM (active).

On to `Cc1ccc(-c2ccc(C3C(C#N)=C(N)Oc4[nH]nc(C)c43)o2)cc1` (stereo unspecified), for which, in test [14], the IC50 is > 100 µM (active). Also, in test [23], the AC50 was > 380 µM (inactive). In addition, the EC50 in test [24] is 4.25 µM (active).

Consider `CC(C)Cn1cnc2c1c(=O)n(C)c(=O)n2C` [ISBUFYLLINE], for which the IC50 in test [1], in test [2], in test [3], in [4], in test [5] and in [6] was > 20 µM (inactive) throughout. Also, the IC50 in test [7] and in test [8] was > 20 µM (inactive) each time.

As to `Cc1c(Cl)cccc1N(CC(=O)O)S(C)(=O)=O`, the EC50 in test [9] is > 50 µM (not active).

As to `COC(=O)c1ccc(CSc2nc(C(F)(F)F)c3c(c2C#N)CCC3)o1`, the IC50 in test [14] is > 100 µM (active). Also, in test [15], the CC50 was > 40 µM (active).
